# Data reported in patent US10722501B2 (BAYER AKTIENGESELLSCHAFT, priority 2016, dated 2020).
# Molecular target: T1, recombinant full-length human prolyl endopeptidase (PREP) (Homo sapiens, UniProt P48147)
# T1 construct: To recombinant full-length human prolyl endopeptidase (PREP, R&D-Systems, 4308-SE); purchased R&D-Systems 4308-SE
# T1 sequence (P48147 1-710): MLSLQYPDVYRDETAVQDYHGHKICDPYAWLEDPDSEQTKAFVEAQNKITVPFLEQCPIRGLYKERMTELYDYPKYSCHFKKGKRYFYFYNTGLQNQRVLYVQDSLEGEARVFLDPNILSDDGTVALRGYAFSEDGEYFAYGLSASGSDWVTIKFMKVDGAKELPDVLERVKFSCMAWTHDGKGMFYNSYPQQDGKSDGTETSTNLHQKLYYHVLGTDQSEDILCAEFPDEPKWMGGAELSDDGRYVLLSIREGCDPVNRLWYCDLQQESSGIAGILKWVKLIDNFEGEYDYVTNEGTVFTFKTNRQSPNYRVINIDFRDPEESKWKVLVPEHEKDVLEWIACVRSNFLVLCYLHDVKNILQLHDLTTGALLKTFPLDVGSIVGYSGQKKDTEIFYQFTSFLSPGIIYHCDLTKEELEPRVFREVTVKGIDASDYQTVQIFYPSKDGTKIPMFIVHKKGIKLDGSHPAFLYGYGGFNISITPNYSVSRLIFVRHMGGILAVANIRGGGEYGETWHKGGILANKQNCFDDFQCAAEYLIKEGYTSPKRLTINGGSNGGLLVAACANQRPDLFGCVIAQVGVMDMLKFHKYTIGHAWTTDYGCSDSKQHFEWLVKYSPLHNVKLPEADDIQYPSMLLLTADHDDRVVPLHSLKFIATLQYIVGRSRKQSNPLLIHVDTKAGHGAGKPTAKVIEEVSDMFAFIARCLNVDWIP
# Assay: Biochemical human prolyl endopeptidase (PREP) assay with fluorescently labelled substrate
# Details: substrate Z-Gly-Pro-AMC 50 μM, 32° C., 60 min; some as mean values from multiple independent determinations
# Description: B-1 Biochemical Human Prolyl Endopeptidase (PREP) Assay for Identification of Inhibitors of PREP Activity Using a Fluorescently Labelled Substrate Principle of the Assay:
# The enzymatic conversion of the fluorescent peptide substrate was observed on the basis of the measurement of the fluorescence intensity. The enzyme activity was determined by the ascertaining of the initial slope in the increase in fluorescence. Compounds that inhibit PREP were identified on the basis of the decrease in the initial slope compared to a reaction mixture without test compound.
# Determination of Activity:
# IC50 values were determined by the plotting of the percentage PREP activity against the concentration of the test substance by interpolation.
# To recombinant full-length human prolyl endopeptidase (PREP, R&D-Systems, 4308-SE; final concentration, for example, 0.4 nM, volume: 25 μl) in reaction buffer (50 mM Tris-HCl, pH 7.5; 150 mM NaCl; 0.13% BSA, 5 mM EDTA, 3 mM GSH, 0.005% Brij-35) was added a test compound (in DMSO, in an appropriate final concentration range from 1 nM to 30 μM, volume: 1 μl) in a well of a 384-well microtitre plate. The reaction was initiated by adding the substrate Z-Gly-Pro-AMC (final concentration 50 μM; Z=carboxybenzyl; AMC=7-amino-4-methylcoumarin, volume: 25 μl). The progress of the PREP reaction was observed by measuring the fluorescence intensity in a Tecan SAFIRE II plate spectrophotometer at 32° C. over a period of 60 min (excitation wavelength: 360 nm, emission wavelength: 465 nm).
# Table B-1 below collates the IC50 values thus obtained from the human prolyl endopeptidase assay for individual working examples of the invention (some as mean values from multiple independent individual determinations).
row,SMILES,IC50
1,"Cc1ccc(Cn2nc3n(c2=O)C(C(=O)N2CCCC2)CCC3)cc1 (racemic) [Example 25, (5RS)-2-(4-Methylbenzyl)-5-(pyrrolidin-1-ylcarbonyl)-5,6,7,8-tetrahydro[1,2,4]triazolo[4,3-a]pyridin-3(2H)-one]",0.76 nM
2,"O=C(C1CCCc2nn(Cc3ccc(C(F)(F)F)nc3)c(=O)n21)N1CCCC1 (single isomer, unassigned) [Example 85, (5RS)-5-(Pyrrolidin-1-ylcarbonyl)-2-{[6-(trifluoromethyl)pyridin-3-yl]methyl}-5,6,7,8-tetrahydro[1,2,4]triazolo[4,3-a]pyridin-3(2H)-one]",2.1 nM
3,"O=C([C@@H]1CCCc2nn(Cc3cnc(C(F)(F)F)c(Cl)c3)c(=O)n21)N1CCC(F)(F)C1 [Example 441, (5S)-2-{[5-Chloro-6-(trifluoromethyl)pyridin-3-yl]methyl}-5-[(3,3-difluoropyrrolidin-1-yl)carbonyl]-5,6,7,8-tetrahydro[1,2,4]triazolo[4,3-a]pyridin-3(2H)-one]",2 nM
4,"O=C(C1CC(C(F)(F)F)Cc2nn(Cc3ccnc(C(F)(F)F)c3F)c(=O)n21)N1C[C@@H](F)[C@@H](F)C1 (single isomer, unassigned) [Example 260]",2.6 nM
5,"O=C(C1CCc2nn(Cc3ccc(Cl)nc3)c(=O)n21)N1CCC(F)(F)C1 (racemic) [Example 166, (5RS)-2-[(6-Chloropyridin-3-yl)methyl]-5-[(3,3-difluoropyrrolidin-1-yl)carbonyl]-2,5,6,7-tetrahydro-3H-pyrrolo[2,1-c][1,2,4]triazol-3-one]",22 nM
6,"O=C([C@@H]1CCCc2nn(Cc3ccc(F)c(Cl)c3)c(=O)n21)N1CC[C@H](F)C1 [Example 454, (5S)-2-(3-Chloro-4-fluorobenzyl)-5-{[(3S)-3-fluoropyrrolidin-1-yl]carbonyl}-5,6,7,8-tetrahydro[1,2,4]triazolo[4,3-a]pyridin-3(2H)-one]",0.063 nM
7,"COc1ccc(CCn2nc3n(c2=O)[C@H](C(=O)N2CC(F)C2)CCC3)cc1 [Example 347, (5S)-5-[(3-Fluoroazetidin-1-yl)carbonyl]-2-[2-(4-methoxyphenyl)ethyl]-5,6,7,8-tetrahydro[1,2,4]triazolo[4,3-a]pyridin-3(2H)-one]",4.8 nM
8,"CC1Cc2nn(Cc3ccc(C(F)(F)F)nc3)c(=O)n2C(C(=O)N2CC[C@H](F)C2)C1 (mixture of isomers) [Example 136, (5RS,7RS)-5-{[(3S)-3-Fluoropyrrolidin-1-yl]carbonyl}-7-methyl-2-{[6-(trifluoromethyl)pyridin-3-yl]methyl}-5,6,7,8-tetrahydro[1,2,4]triazolo[4,3-a]pyridin-3(2H)-one]",1.17 nM
9,"CC1Cc2nn(Cc3ccc(F)c(Cl)c3)c(=O)n2C(C(=O)N2CCC(F)(F)C2)C1 (racemic) [Example 331, (5RS,7RS)-2-(3-Chloro-4-fluorobenzyl)-5-[(3,3-difluoropyrrolidin-1-yl)carbonyl]-7-methyl-5,6,7,8-tetrahydro[1,2,4]triazolo[4,3-a]pyridin-3(2H)-one]",0.68 nM
10,"CCn1ccnc1Cn1nc2n(c1=O)C(C(=O)N1CCCC1)CCC2 (racemic) [Example 70, (5RS)-2-[(1-Ethyl-1H-imidazol-2-yl)methyl]-5-(pyrrolidin-1-ylcarbonyl)-5,6,7,8-tetrahydro[1,2,4]triazolo[4,3-a]pyridin-3(2H)-one]",11 nM
11,"Cc1ccc(Cn2nc3n(c2=O)C(C(=O)N2CCC(F)(F)C2)CCC3)cc1 (racemic) [Example 42, (5RS)-5-[(3,3-Difluoropyrrolidin-1-yl)carbonyl]-2-(4-methylbenzyl)-5,6,7,8-tetrahydro[1,2,4]triazolo[4,3-a]pyridin-3(2H)-one]",1.45 nM
12,"O=C([C@@H]1CCCc2nn(Cc3ccc(F)c(F)c3)c(=O)n21)N1CC(F)C1 [Example 469, (5S)-2-(3,4-Difluorobenzyl)-5-[(3-fluoroazetidin-1-yl)carbonyl]-5,6,7,8-tetrahydro[1,2,4]triazolo[4,3-a]pyridin-3(2H)-one]",0.795 nM
13,"O=C(C1CC(C(F)(F)F)Cc2nn(Cc3ncc(F)cc3F)c(=O)n21)N1CC[C@H](F)C1 (single isomer, unassigned) [Example 570]",0.57 nM
14,"O=C([C@@H]1CCC(F)(F)c2nn(Cc3ccc(Cl)nc3)c(=O)n21)N1CCC(F)(F)C1 [Example 557, (5S)-2-[(6-Chloropyridin-3-yl)methyl]-5-[(3,3-difluoropyrrolidin-1-yl)carbonyl]-8,8-difluoro-5,6,7,8-tetrahydro[1,2,4]triazolo[4,3-a]pyridin-3(2H)-one]",3.2 nM
15,"O=C(C1CCc2nn(Cc3ccnc(C(F)(F)F)c3F)c(=O)n21)N1CC(F)C1 (racemic) [Example 182, (5RS)-5-[(3-Fluoroazetidin-1-yl)carbonyl]-2-{[3-fluoro-2-(trifluoromethyl)pyridin-4-yl]methyl}-2,5,6,7-tetrahydro-3H-pyrrolo[2,1-c][1,2,4]triazol-3-one]",37.5 nM
16,"O=C(C1CC(C(F)(F)F)Cc2nn(Cc3ccc(Cl)nc3)c(=O)n21)N1CC[C@@H](F)C1 (single isomer, unassigned) [Example 247]",910 nM
17,"O=C(C1CCCc2nn(Cc3ccc(F)c(Cl)c3)c(=O)n21)N1CCCC1 (racemic) [Example 18, (5RS)-2-(3-Chloro-4-fluorobenzyl)-5-(pyrrolidin-1-ylcarbonyl)-5,6,7,8-tetrahydro[1,2,4]triazolo[4,3-a]pyridin-3(2H)-one]",0.575 nM
18,"O=C(C1C(C(F)(F)F)CCc2nn(Cc3ccc(C(F)(F)F)nc3)c(=O)n21)N1CC[C@H](F)C1 (single isomer, unassigned) [Example 285]",1.3 nM
19,"O=C([C@@H]1CCCc2nn(Cc3ncc(Cl)cc3F)c(=O)n21)N1CC(F)C1 [Example 407, (5S)-2-[(5-Chloro-3-fluoropyridin-2-yl)methyl]-5-[(3-fluoroazetidin-1-yl)carbonyl]-5,6,7,8-tetrahydro[1,2,4]triazolo[4,3-a]pyridin-3(2H)-one]",1.35 nM
20,"O=C(C1CC(C(F)(F)F)Cc2nn(Cc3ccnc(C(F)(F)F)c3F)c(=O)n21)N1C[C@@H](F)[C@@H](F)C1 (single isomer, unassigned) [Example 259]",17 nM
21,"O=C([C@@H]1CCCc2nn(CC3(c4cccc(Cl)n4)CC3)c(=O)n21)N1CC[C@H](F)C1 [Example 350, (5S)-2-{[1-(6-Chloropyridin-2-yl)cyclopropyl]methyl}-5-{[(3S)-3-fluoropyrrolidin-1-yl]carbonyl}-5,6,7,8-tetrahydro[1,2,4]triazolo[4,3-a]pyridin-3(2H)-one]",0.35 nM
22,"O=C(C1CC(C(F)(F)F)Cc2nn(Cc3ccc(Cl)cn3)c(=O)n21)N1CCC(F)(F)C1 (racemic) [Example 566, (5RS,7RS)-2-[(5-Chloropyridin-2-yl)methyl]-5-[(3,3-difluoropyrrolidin-1-yl)carbonyl]-7-(trifluoromethyl)-5,6,7,8-tetrahydro[1,2,4]triazolo[4,3-a]pyridin-3(2H)-one]",4.1 nM
23,"O=C(C1CCc2nn(Cc3ccnc(C(F)(F)F)c3F)c(=O)n21)N1CC[C@H](F)C1 (mixture of isomers) [Example 178, (5RS)-5-{[(3S)-3-Fluoropyrrolidin-1-yl]carbonyl}-2-{[3-fluoro-2-(trifluoromethyl)pyridin-4-yl]methyl}-2,5,6,7-tetrahydro-3H-pyrrolo[2,1-c][1,2,4]triazol-3-one]",1.3 nM
